How the values were obtained:
[1] = test system: HCT-15; experiment: NCI 60 cell line panel: HCT-15; assay type: cell-based, human; settings: Colon cancer, TP53 null/mutant
Source text: (§1) Details of the NCI 60 One Dose Screen are well known and available online.

[2] = target: DNMT1 (Homo sapiens, UniProt P26358); experiment: Western blot for DNMT1, THP-1 cells; assay type: cell-based; design: cytoplasmic and nuclear protein extracts from cells; endogenous in cells; host or cells: THP-1; settings: 0.1 and 0.2 µM, 6 days after exposure
Description: Cells were co-stained with Annexin-V and PI on day 2 and analyzed by flow cytometry.
Approximately 100 µg of cytoplasmic and nuclear protein extracts from cells, together with molecular weight markers, were subjected to SDS-PAGE on 4–12% gradient gels (Invitrogen, Carlsbad, CA, USA) followed by transfer to polyvinylidene fluoride membranes (Invitrogen). Blots were probed using antibodies for DNMT1 (Abcam ab16632).

[3] = test system: SF-539; experiment: NCI 60 cell line panel: SF-539; assay type: cell-based, human; settings: CNS cancer, TP53 null/mutant
Source text: as §1

[4] = test system: THP-1 cells; experiment: Morphology (Giemsa stain) of THP-1 cells; assay type: cell-based, human; settings: 6 days following exposure
[5] = test system: HOP-92; experiment: NCI 60 cell line panel: HOP-92; assay type: cell-based, human; settings: NSCL, TP53 null/mutant
Source text: as §1

[6] = test system: RXF 393; experiment: NCI 60 cell line panel: RXF 393; assay type: cell-based, human; settings: Renal cancer, TP53 null/mutant
Source text: as §1

[7] = test system: OVCAR-3; experiment: NCI 60 cell line panel: OVCAR-3; assay type: cell-based, human; settings: Ovarian cancer, TP53 null/mutant
Source text: as §1

[8] = test system: SF-295; experiment: NCI 60 cell line panel: SF-295; assay type: cell-based, human; settings: CNS cancer, TP53 null/mutant
Source text: as §1

[9] = nude mice; same schedule
Description: Three mice were placed in a dose group on the first day of treatment (Day 1). […] Animals were observed daily for mortality and moribundity. Body weights were measured daily starting on day 1.

[10] = test system: NCI-H226; experiment: NCI 60 cell line panel: NCI-H226; assay type: cell-based, human; settings: NSCL, TP53 null/mutant
Source text: as §1

[11] = test system: MDA-MB-435; experiment: NCI 60 cell line panel: MDA-MB-435; assay type: cell-based, human; settings: Melanoma, TP53 null/mutant
Source text: as §1

[12] = test system: SK-MEL-2; experiment: NCI 60 cell line panel: SK-MEL-2; assay type: cell-based, human; settings: Melanoma, TP53 null/mutant
Source text: as §1

[13] = test system: RPMI-8226; experiment: NCI 60 cell line panel: RPMI-8226; assay type: cell-based, human; settings: Leukemia, TP53 null/mutant
Source text: as §1

[14] = test system: NCI/ADR-RES; experiment: NCI 60 cell line panel: NCI/ADR-RES; assay type: cell-based, human; settings: Ovarian cancer, TP53 null/mutant
Source text: as §1

[15] = test system: human colon cancer cell line HCT-116; experiment: In vitro growth inhibition (CellTiter-Glo), HCT-116; assay type: cell-based; settings: HCT 116 TP53(-/-), read-out: GI50 (concentration of drug that inhibited 50% of cell growth), 72 h exposure
Description: Cells were grown in an appropriate medium for the cell line of interest; 96 well plates of each cell line were seeded with 5000 cells per well and left overnight. Drug exposed cells were incubated at 37 °C for 72 h. At the end of the 72 h exposure period, plates were removed for the CellTiter-Glo® assay. Luminescence was recorded on a Synergy 4.0. Assays were performed in triplicate.

[16] = test system: SNB-75; experiment: NCI 60 cell line panel: SNB-75; assay type: cell-based, human; settings: CNS cancer, TP53 null/mutant
Source text: as §1

[17] = test system: UACC-257; experiment: NCI 60 cell line panel: UACC-257; assay type: cell-based, human; settings: Melanoma, TP53 wild type
Source text: as §1

[18] = test system: BT-549; experiment: NCI 60 cell line panel: BT-549; assay type: cell-based, human; settings: Breast cancer, TP53 null/mutant
Source text: as §1

[19] = test system: MCF7; experiment: NCI 60 cell line panel: MCF7; assay type: cell-based, human; settings: Breast cancer, TP53 wild type
Source text: as §1

[20] = test system: total DNMT; experiment: Total DNMT inhibition, colorimetric assay in HCT-116 cells; assay type: cell-based, human; settings: 10 µM, 24 h
Description: Total DNMT activity was measured in the colon cancer cell line HCT-116. The assay was performed using the EpiQuick^TM DNA Methyltransferase Activity/Inhibition Assay Kit (Epigentek, Brooklyn, NY, USA). […] Assays were performed three times in triplicate.

[21] = test system: UACC-62; experiment: NCI 60 cell line panel: UACC-62; assay type: cell-based, human; settings: Melanoma, TP53 wild type
Source text: as §1

Sequence of DNMT1 (P26358 whole entry): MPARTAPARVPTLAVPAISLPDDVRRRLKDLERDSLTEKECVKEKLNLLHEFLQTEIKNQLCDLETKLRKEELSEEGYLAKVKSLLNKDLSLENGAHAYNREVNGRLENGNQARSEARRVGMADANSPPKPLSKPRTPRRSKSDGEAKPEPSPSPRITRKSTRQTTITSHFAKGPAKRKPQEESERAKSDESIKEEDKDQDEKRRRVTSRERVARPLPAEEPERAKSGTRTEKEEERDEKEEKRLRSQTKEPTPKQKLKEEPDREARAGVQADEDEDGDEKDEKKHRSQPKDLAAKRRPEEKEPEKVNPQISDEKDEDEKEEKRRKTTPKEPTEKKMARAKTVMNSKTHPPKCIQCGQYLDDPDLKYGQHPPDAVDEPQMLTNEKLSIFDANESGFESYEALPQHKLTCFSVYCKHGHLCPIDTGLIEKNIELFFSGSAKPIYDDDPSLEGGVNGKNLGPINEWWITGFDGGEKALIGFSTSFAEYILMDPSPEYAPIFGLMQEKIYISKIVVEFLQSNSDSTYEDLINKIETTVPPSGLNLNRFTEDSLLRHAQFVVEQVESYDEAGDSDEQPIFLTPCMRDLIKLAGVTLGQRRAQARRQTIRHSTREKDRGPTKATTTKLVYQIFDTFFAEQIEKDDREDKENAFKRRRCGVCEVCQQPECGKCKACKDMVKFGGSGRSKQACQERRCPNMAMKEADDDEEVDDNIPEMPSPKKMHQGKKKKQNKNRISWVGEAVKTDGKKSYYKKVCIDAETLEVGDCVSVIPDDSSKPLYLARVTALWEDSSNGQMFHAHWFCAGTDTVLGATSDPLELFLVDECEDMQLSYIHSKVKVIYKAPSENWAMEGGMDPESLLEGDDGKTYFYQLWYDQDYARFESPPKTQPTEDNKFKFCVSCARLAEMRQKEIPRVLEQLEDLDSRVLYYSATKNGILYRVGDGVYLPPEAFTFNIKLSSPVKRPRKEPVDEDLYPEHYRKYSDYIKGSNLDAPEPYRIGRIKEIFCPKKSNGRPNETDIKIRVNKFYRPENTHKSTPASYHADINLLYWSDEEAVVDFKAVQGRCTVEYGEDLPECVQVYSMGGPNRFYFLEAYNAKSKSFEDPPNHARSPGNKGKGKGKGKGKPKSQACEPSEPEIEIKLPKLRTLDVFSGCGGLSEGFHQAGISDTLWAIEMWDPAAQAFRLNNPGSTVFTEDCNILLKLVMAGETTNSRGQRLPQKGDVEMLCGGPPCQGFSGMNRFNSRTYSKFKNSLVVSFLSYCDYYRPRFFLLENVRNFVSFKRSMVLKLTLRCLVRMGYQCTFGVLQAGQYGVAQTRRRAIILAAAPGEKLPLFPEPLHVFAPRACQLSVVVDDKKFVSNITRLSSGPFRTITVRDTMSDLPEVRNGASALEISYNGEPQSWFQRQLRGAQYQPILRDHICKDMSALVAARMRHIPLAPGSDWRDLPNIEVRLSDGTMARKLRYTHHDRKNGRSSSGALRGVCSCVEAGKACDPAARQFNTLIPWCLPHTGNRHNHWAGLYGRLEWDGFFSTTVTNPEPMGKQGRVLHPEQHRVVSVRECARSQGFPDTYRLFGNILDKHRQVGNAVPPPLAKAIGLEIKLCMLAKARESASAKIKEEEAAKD

Nc1ncn([C@@H]2O[C@H](CO)[C@@H](O)C2(F)F)c(=O)n1 [NUC013, 5-aza-2′,2′-difluroro deoxycytidine]
Growth (%) at 10 µM [1]: 52.19%
DNMT1 inhibition by western blot [2]: comparable to decitabine
Growth (%) at 10 µM [3]: 22.25%
morphologic changes [4]: morphologic changes suggestive of cell differentiation
Growth (%) at 10 µM [5]: 34.34%
Growth (%) at 10 µM [6]: 44.97%
Growth (%) at 10 µM [7]: 70.56%
Growth (%) at 10 µM [8]: 77.93%
difference in MTD versus decitabine [9]: greater than 24 fold
Growth (%) at 10 µM [10]: 52.34%
Growth (%) at 10 µM [11]: 53.04%
Growth (%) at 10 µM [12]: 104.47%
Growth (%) at 10 µM [13]: 39.24%
Growth (%) at 10 µM [14]: 42.13%
GI50 [15]: 4.54 µM
Growth (%) at 10 µM [16]: 64.95%
Growth (%) at 10 µM [17]: 77.54%
Growth (%) at 10 µM [18]: 53.63%
Growth (%) at 10 µM [19]: 20.74%
inhibition of total DNMT [20]: 48.5%
Growth (%) at 10 µM [21]: 47.29%

Reference: article PMC5620609 (Pharmaceuticals, 2017)
